# Patent US20120095052A1, “PAR-1 ANTAGONISM IN FED OR ANTACID-DOSED PATIENTS” (priority 2009, published 2012)
# Read-outs that look alike come from different tables or passages of the source.
# Assay: Clinical study of the effect of food and antacid on pharmacokinetics after a single oral 40 mg tablet in healthy subjects
# Format: in vivo, human
# Conditions: for Tmax / Cmax / half-life / AUC: single 40 mg oral tablet; for Tmax: median; for Cmax / half-life / AUC: po, 40 mg, mean
# Experimental: and or the bisulfate salt thereof in healthy subjects was studied in a clinical trial. The primary objective of the study was to evaluate the effect of food (standardized high-fat breakfast) and antacid (increased gastric pH) on the pharmacokinetics (PK) of
# and or the bisulfate salt thereof administered orally as a 40 mg tablet. A secondary objective was to evaluate the effect of meal timing relative to fasting on the PK of
# The study was designed as a randomized, open-label, single-dose, parallel-group, single-center study conducted in healthy young adults in conformance with Good Clinical Practice. Healthy male and female subjects between the ages of 18 and 45 years with a body mass index of 19-32 kg/m^2 were eligible for enrollment. Eligible subjects were randomly assigned to receive a single 40 mg dose of
# basis on Days 7, 14, 21, 28, 35, and 42 (±1 day) after dosing. The bioanalytical assay was an LC-MS/MS assay, LLOQ=1.00 ng/mL.
# [1] = 40 mg tablet immediately with food vs fasted
# [2] = 1 hr after food vs fasted, 40 mg tablet
# [3] = 2 hr after food vs fasted, 40 mg tablet
# [4] = Fed (immediately with food) vs fasted, 40 mg tablet
# [5] = antacid co-administration vs alone, fasted subjects
# [6] = fasted subjects, with antacid vs alone, 40 mg tablet
structure (smiles),measurement,setting,value
"CCOC(=O)N[C@@H]1CC[C@@H]2[C@@H](C1)C[C@H]1C(=O)O[C@H](C)[C@H]1[C@H]2/C=C/c1ccc(-c2cccc(F)c2)cn1 [SCH 530348, ethyl [(R1R,3aR,4aR,6R,8aR,9S,9aS)-9-[(E)-2-[5-(3-fluorophenyl)-2-pyridinyl]ethenyl]-dodecahydro-1-methyl-3-oxonaphtho[2,3-c]furan-6-yl] carbamate]",increase of peak plasma concentration (Cmax),[1],31%
same,increase of systemic exposure (AUC[l]),[1],43%
same,Tmax,1 hour after food,0.083 days
same,"Ratio Estimate Fed vs Fasted, AUC(I) (relative bioavailability)",[2],143
same,"Ratio Estimate Fed vs Fasted, Cmax (relative bioavailability)",[2],117
same,Tmax,2 hours after food,0.083 days
same,"Ratio Estimate Fed vs Fasted, AUC(I) (relative bioavailability)",[3],127
same,"Ratio Estimate Fed vs Fasted, Cmax (relative bioavailability)",[3],137
same,Tmax,Fasted with antacid,0.083 days
same,"Ratio Estimate Fed vs Fasted, AUC(I) (relative bioavailability)",[4],143
same,"Ratio Estimate Fed vs Fasted, Cmax (relative bioavailability)",[4],131
same,reduction of peak plasma concentration (Cmax),[5],38%
same,reduction of systemic exposure (AUC[l]),[5],15%
same,Cmax,"both sexes, human, plasma, 1 hour after food (high-fat breakfast)",298 ng/mL
same,half-life,"both sexes, human, plasma, 1 hour after food, n = 9",12 days
same,AUC,"both sexes, human, plasma, 1 hour after food, n = 9, read-out: AUC(I)",26800 ng·h/mL
same,AUC,"both sexes, human, plasma, 1 hour after food, read-out: AUC(tf)",23200 ng·h/mL
same,Cmax,"both sexes, human, plasma, 2 hours after food (high-fat breakfast)",355 ng/mL
same,half-life,"both sexes, human, plasma, 2 hours after food, n = 9",10.1 days
same,AUC,"both sexes, human, plasma, 2 hours after food, n = 9, read-out: AUC(I)",23400 ng·h/mL
same,AUC,"both sexes, human, plasma, 2 hours after food, read-out: AUC(tf)",22400 ng·h/mL
same,Cmax,"both sexes, human, plasma, Fasted with antacid (20 mL Gaviscon extra-strength liquid)",165 ng/mL
same,half-life,"both sexes, human, plasma, Fasted with antacid, n = 18",10.2 days
same,AUC,"both sexes, human, plasma, Fasted with antacid, n = 18, read-out: AUC(I)",15800 ng·h/mL
same,AUC,"both sexes, human, plasma, Fasted with antacid, read-out: AUC(tf)",15000 ng·h/mL
same,Cmax,"both sexes, human, plasma, Fasted without antacid (after 10-hour fast), healthy subjects",262 ng/mL
same,half-life,"both sexes, human, plasma, Fasted without antacid, healthy subjects, n = 19",10 days
same,AUC,"both sexes, human, plasma, Fasted without antacid, healthy subjects, n = 19, read-out: AUC(I)",18400 ng·h/mL
same,AUC,"both sexes, human, plasma, Fasted without antacid, healthy subjects, read-out: AUC(tf)",16800 ng·h/mL
same,half-life,"both sexes, human, plasma, Fed (immediately with food), n = 18",10.9 days
same,AUC,"both sexes, human, plasma, Fed (immediately with food), n = 18, read-out: AUC(I)",26600 ng·h/mL
same,AUC,"both sexes, human, plasma, Fed (immediately with food), read-out: AUC(tf)",22800 ng·h/mL
same,Cmax,"both sexes, human, plasma, Fed (within 5 minutes of completing standardized high-fat breakfast)",347 ng/mL
same,Tmax,"both sexes, human, plasma, Fed (immediately with food), read-out: Tmax",0.125 days
same,"Ratio Estimate with vs without Antacid, AUC(I) (relative bioavailability)",[6],85
same,"Ratio Estimate with vs without Antacid, Cmax (relative bioavailability)",[6],62
